# According to patent US8609610B2, “Inhibitors of the trypsin-like site of the proteasome and methods of use thereof” (Trustees of Dartmouth College, priority 2011, dated 2013):
# “Also recorded” adds a separate entry of the source.
# How the values were obtained:
# [1] = target: T1, trypsin-like site of 26S proteasomes (Oryctolagus cuniculus, UniProt G1SWK8); assay: Inhibition of purified 26S proteasomes, substrate Ac-RLR-amc; assay type: biochemical, rabbit; conditions: 26S proteasomes from rabbit muscles
# T1 construct: IC50 for sites in 26S proteasomes: Tr-L; other: purified 26S proteasomes; other: 26S proteasomes from rabbit muscles
# T1 sequence (G1SWK8 1-271): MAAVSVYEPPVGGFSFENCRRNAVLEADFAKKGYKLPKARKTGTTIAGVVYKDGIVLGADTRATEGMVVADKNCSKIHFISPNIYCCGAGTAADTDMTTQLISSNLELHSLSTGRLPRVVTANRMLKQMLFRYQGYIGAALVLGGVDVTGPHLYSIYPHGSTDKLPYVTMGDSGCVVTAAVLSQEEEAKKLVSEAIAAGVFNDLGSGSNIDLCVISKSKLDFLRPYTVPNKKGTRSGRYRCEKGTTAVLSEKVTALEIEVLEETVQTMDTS
# [2] = target: T2, trypsin-like sites (β2) of proteasome in MM cells (Homo sapiens, UniProt Q99436); assay: PROTEASOMEGLO assay of proteasome inhibition in MM cells; assay type: cell-based; conditions: NCI-H929 cells treated overnight
# T2 construct: endogenous in cells; host or cells: NCI-H929, RPMI-8226 and other MM cell lines
# T2 sequence (Q99436 44-277): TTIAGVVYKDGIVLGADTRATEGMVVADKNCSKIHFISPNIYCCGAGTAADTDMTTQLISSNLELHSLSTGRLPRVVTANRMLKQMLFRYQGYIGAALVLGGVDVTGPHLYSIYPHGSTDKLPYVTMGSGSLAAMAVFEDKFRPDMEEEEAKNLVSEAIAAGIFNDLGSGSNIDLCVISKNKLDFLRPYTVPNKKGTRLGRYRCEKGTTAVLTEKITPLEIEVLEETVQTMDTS
# Method: Proteasome inhibition in MM cells was measured with luminogenic substrates using PROTEASOMEGLO assay (Promega). […] An aliquot of culture was pelleted and medium was removed and replaced with PBS. The resulting cell suspension was mixed with luminogenic substrates in the manufacturer-provided lysis/assay buffer. After 3 minutes mixing on an orbital shaker, the plate was incubated in the dark for additional 17 minutes, followed by the measurements of the luminescence, performed in triplicate for each substrate/data point. Data were analyzed as for purified proteasomes. […] Cells (1×10^6 per well of a 6-well plate) were incubated with the inhibitors for 4 hours at 37° C. and this was followed by a 2 hour incubation with 5 μM BODIPY-TMR-epoxomicin. Subsequently, the medium was removed and the cells were washed with PBS and harvested. […] The supernatant was collected and the protein concentration was determined by the Bradford assay, and used to normalize gel loading. The samples were analysed by SDS-PAGE and fluorescent densitometry as described for competition experiment in cell lysates. IC50 values were calculated from three independent experiments using […] PRISM software.
# [3] = system: β2 and β2i sites; assay: MV-151 label-competition in extracts of RPMI-8226 MM cells; assay type: biochemical; conditions: extracts of RPMI-8226 cells, MV-151 probe
# Description: Multiple myeloma cells express constitutive proteasomes and immunoproteasomes, and substrates used for the measurement of activity were cleaved by both. To determine whether there were any differences in inhibition of constitutive proteasomes or immunoproteasomes by NC-002, NC-012, and NC-022, the fluorescent activity-based probe MV-151 (Verdoes, et al. (2006) Chem. Biol. 13:1217-1226) was used in a label-competition experiment. Extracts of RPMI-8226 MM cells (which express more immunoproteasomes than NCI-H929 cells) were treated first with the NC inhibitors and then with the MV-151 probe. This was followed by fractionation on SDS-PAGE to separate proteasome subunits and imaging to reveal those subunits labeled by the probe (i.e., unmodified by the inhibitors).
structure (smiles),measurement,setting,value
"CC(=O)N[C@@H](CCCNC(=N)N)C(=O)N[C@@H](CC(C)C)C(=O)N[C@@H](CCCNC(=N)N)C(=O)[C@@]1(C)CO1 [NC-012, Ac-Arg-Leu-Arg-ek]",proteasome inhibitory potential on purified 26S proteasomes,[1],potent and specific inhibitors of the trypsin-like sites; also recorded: most potent and specific in the series
same,inhibition of trypsin-like activity in live cells,[2],much higher concentrations
same,inhibition of constitutive (β2) versus immunoproteasome (β2i) trypsin-like sites,[3],equipotent inhibitors of the trypsin-like sites of constitutive and immunoproteasomes
